Results: patent US20050084505A1, “Utilization of ubiquinones for influencing the effect of histamine” (priority 2002, published 2005)

Tests used:
[1] = tested on: prepared lung tissue and trachea pieces of guinea pigs; conditions: tissue not aerated, cited from earlier work
[2] = tested on: Isolated, perfused and ventilated lungs from adult rats; assay: Isolated, perfused and ventilated rat lung, histamine-induced constriction
Description: Isolated, perfused and ventilated lungs from adult rats (280 to 330 g body weight) were injected with 50 pg of histamine per lung. After 2 to […], this caused constriction of the bronchial and pulmonary vessels with reduction of the lung extensibility.

[3] = upon the action of γ-globulin on lung tissue

In the case of COC1=C(OC)C(=O)C(C/C=C(\C)CC/C=C(\C)CC/C=C(\C)CC/C=C(\C)CC/C=C(\C)CC/C=C(\C)CC/C=C(\C)CC/C=C(\C)CC/C=C(\C)CCC=C(C)C)=C(C)C1=O [CoQ-10, 2,3-dimethoxy-5-methyl-6-decaprenyl-1,4-benzoquinone], the “contraction of lung tissue by added histamine” value ([1]; continuously administered) is given as “increased”, the “secretion of SRS-A” value [1, 3] is given as “reduced” and the secretion of histamines [1, 3] is given as “reduced”. For the same molecule, the “spontaneous vasoconstriction of the lung vessels” value ([2]; 2.7 ppm in the perfusate, compared with control perfusion (even below)) was “decreased” and the “delayed histamine reaction (constriction of the bronchial and pulmonary vessels with reduction of the lung extensibility)” value ([2]; previous addition of 2.7 ppm in the perfusate, 50 pg of histamine per lung, reaction after 2 to 3 hours) was “completely prevented”.
